From patent US20240408169A1 (priority 2023, published 2024)
*1 amine or outer side, *2 acyl side, *3 side chain or, on linkers, in order; H or OH if unused. Where a SMILES comes first, the peptide text is derived from it. Bridges are numbered along the chain shown (N, C = ends). [ ]: non-standard residue; d: D form. The star is where a group is joined. NMePhe(2-(4-MorPh),5-Cl) = CN[C@@H](Cc1cc(Cl)ccc1-c1ccc(N2CCOCC2)cc1)C(=O)O; X121 = C[C@@H]1CN(c2ccc(-c3ccc(Cl)cc3C[C@@H](C(=O)[*:2])N(C)[*:1])cc2)CCO1; X144 = CN([C@@H](Cc1cc(Cl)ccc1-c1ccc(N2CC(C)(F)C2)nc1)C(=O)[*:2])[*:1]; X212 = CN1CCC(Oc2ccc(-c3ccc(Cl)cc3C[C@@H](C(=O)[*:2])N(C)[*:1])cn2)CC1; X145 = CN1CCN(c2ccc(-c3ccc(F)cc3C[C@@H](C(=O)[*:2])N(C)[*:1])cc2F)CC1; NMeAla(5-Cl-2-cPrO-3-pyridyl) = CN[C@@H](Cc1cc(Cl)cnc1OC1CC1)C(=O)O; NMehhhLys(Me) = CN([C@@H](CCCCCCCN(C)[*:3])C(=O)[*:2])[*:1]; X22 = CN([C@@H](Cc1cc(Cl)ccc1-c1cnn(C)c1)C(=O)[*:2])[*:1]; NMe(hhhLys) = CN([C@@H](CCCCCCCN[*:3])C(=O)[*:2])[*:1]; X156 = CN([C@@H](Cc1cc(Cl)cc2ccccc12)C(=O)[*:2])[*:1]; X132 = CN([C@@H](Cc1cc(Cl)cc2ccoc12)C(=O)[*:2])[*:1]; X143 = CN([C@@H](Cc1cc(F)cc2cccnc12)C(=O)[*:2])[*:1]; cBuCO(3,3-F2-1-CF3) = O=C(C1(C(F)(F)F)CC(F)(F)C1)*; NMePhe(2,5-Cl2) = CN[C@@H](Cc1cc(Cl)ccc1Cl)C(=O)O; X173 = CN([C@@H](Cc1cc(Cl)cs1)C(=O)[*:2])[*:1]; X182 = N#Cc1ccc(CC[C@H](N[*:1])C(=O)[*:2])cn1; Pro(trans-4-F) = O=C(O)[C@@H]1C[C@@H](F)CN1; Gly(cPr) = N[C@H](C(=O)O)C1CC1

Experiments:
CyclinB1/CDK1 = target: T1, CyclinB1/CDK1 (Homo sapiens, UniProt P14635); assay: Fluorescence Polarization (FP) competitive binding assay, Cyclin B1/Cdk1; settings: 10 nM Cyclin B1/Cdk1, 2 nM FAM probe; average of 2-3 independent experiments; read-out: Cyclin B FP IC50;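 note: fluorescence polarization read after equilibration at room temperature, with IC50 taken from serially diluted dose-response curves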
T1 construct: purchased Eurofins, discovery 14-450

CyclinE1/CDK2 = target: T2, CyclinE1/CDK2 (Homo sapiens, UniProt P24864); assay: Fluorescence Polarization (FP) competitive binding assay, Cyclin E1/Cdk2; settings: 10 nM Cyclin E1/Cdk2, 2 nM FAM probe; average of 2-3 independent experiments; read-out: Cyclin E FP IC50;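 note: readings taken after two-hour equilibration at room temperature in HEPES buffer with NaCl, DTT, NP-40 and BSA, IC50 fitted from eight-concentration serial dilution series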
T2 construct: purchased Eurofins, discovery 14-475

WI-38 cells = assay: MTT proliferation assay, WI-38; type: cell-based; settings: 3 days compound exposure, 1:3 serial dilution starting at 10 μM;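 note: Eight- or ten-point dilution series, with exposure length chosen to span about three to four cell doublings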
NCI-H1048 cells = assay: MTT proliferation assay, NCI-H1048; type: cell-based; settings: 5 days compound exposure, 1:3 serial dilution starting at 10 μM;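 note: Dose-response in 96-well plates over 8 or 10 concentration points, with exposure spanning 3-4 cell doublings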
OVCAR3 cells = assay: MTT proliferation assay, OVCAR3; type: cell-based; settings: 5 days compound exposure, 1:3 serial dilution starting at 10 μM;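 note: compound given as an 8- or 10-point series, one day after plating, with exposure covering roughly 3-4 cell doublings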
CyclinA2/CDK2 = target: T3, CyclinA2/CDK2 (Homo sapiens, UniProt P20248); assay: Fluorescence Polarization (FP) competitive binding assay, Cyclin A2/Cdk2; settings: 8 nM Cyclin A2/Cdk2, 2 nM FAM probe; average of 2-3 independent experiments; read-out: Cyclin A FP IC50;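 note: plates equilibrated two hours at room temperature before polarization reading, IC50 fitted from eight-concentration compound titration curves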
T3 construct: purchased CRELUX Protein Services

Row | SMILES | IC50 (CyclinB1/CDK1) [nM] | IC50 (CyclinE1/CDK2) [nM] | GI50 (WI-38 cells) [nM] | GI50 (NCI-H1048 cells) [nM] | GI50 (OVCAR3 cells) [nM] | IC50 (CyclinA2/CDK2) [nM]
1 | CC(C)C[C@@H]1NC(=O)[C@@H](N(C)C(=O)[C@@H](NC(=O)[C@@H]2C[C@@H](F)CN2C(=O)C2(C(F)(F)F)CC(F)(F)C2)C2CC2)CC=CCCCCNC(=O)[C@H](Cc2cc(Cl)ccc2Cl)N(C)C1=O (single isomer, unassigned) [Example 6-P1] | 20 | 500 | 16400 | 50 | 90 | 
2 | CC(C)C[C@@H]1NC(=O)[C@@H](N(C)C(=O)[C@@H](NC(=O)[C@@H]2C[C@@H](F)CN2C(=O)C2(C(F)(F)F)CC(F)(F)C2)C2CC2)CC=CCCCCNC(=O)[C@H](Cc2cc(Cl)ccc2Cl)N(C)C1=O (single isomer, unassigned) [Example 6-P2] | 20 | 240 | 15600 | 40 | 70 | 
3 | CC(C)C[C@@H]1NC(=O)[C@@H](N(C)C(=O)[C@@H](NC(=O)[C@@H]2C[C@@H](F)CN2C(=O)C2(C(F)(F)F)CC3(CCC3)C2)C2CC2)CC=CCCCCN(C)C(=O)[C@H](Cc2cc(Cl)ccc2Cl)N(C)C1=O [Example 15] | 20 | 1040 | 7850 | 180 | 550 | 
4 | CC(C)C[C@@H]1NC(=O)[C@@H](N(C)C(=O)[C@@H](NC(=O)[C@@H]2C[C@@H](F)CN2C(=O)C2(C(F)(F)F)CC(F)(F)C2)C2CC2)CCCCCCCN(C)C(=O)[C@H](Cc2cc(Cl)ccc2Cl)N(C)C1=O [Example 25] ({cBuCO(3,3-F2-1-CF3)}-[Pro(trans-4-F)][Gly(cPr)][NMehhhLys(Me)]L[NMePhe(2,5-Cl2)]; lactam 3-C) | 20 | 230 | 8070 | 30 | 40 | 
5 | CC(C)C[C@@H]1NC(=O)[C@@H](N(C)C(=O)[C@@H](NC(=O)[C@@H]2C[C@@H](F)CN2C(=O)C2(C(F)(F)F)CC(F)(F)C2)C2CC2)CCCCCCCNC(=O)[C@H](Cc2cc(Cl)ccc2-c2cnn(C)c2)N(C)C1=O [Example 66] ({cBuCO(3,3-F2-1-CF3)}-[Pro(trans-4-F)][Gly(cPr)][NMe(hhhLys)]L[X22]; lactam 3-C) |  |  | 12900 | 10 | 10 | 
6 | CC(C)C[C@@H]1NC(=O)[C@@H](N(C)C(=O)[C@@H](NC(=O)[C@@H]2C[C@@H](F)CN2C(=O)C2(C(F)(F)F)CC(F)(F)C2)C2CC2)CCCCCCCN(C)C(=O)[C@H](Cc2cc(Cl)cnc2OC2CC2)N(C)C1=O [Example 105] ({cBuCO(3,3-F2-1-CF3)}-[Pro(trans-4-F)][Gly(cPr)][NMehhhLys(Me)]L[NMeAla(5-Cl-2-cPrO-3-pyridyl)]; lactam 3-C) |  |  | 18800 | 20 | 30 | 
7 | CC(C)C[C@@H]1NC(=O)[C@@H](N(C)C(=O)[C@@H](NC(=O)[C@@H]2C[C@@H](F)CN2C(=O)C2(C(F)(F)F)CC(F)(F)C2)C2CC2)CCCCCCCN(C)C(=O)[C@H](Cc2cc(Cl)cc3ccoc23)N(C)C1=O [Example 394] ({cBuCO(3,3-F2-1-CF3)}-[Pro(trans-4-F)][Gly(cPr)][NMehhhLys(Me)]L[X132]; lactam 3-C) | 20 | 500 |  | 90 | 50 | 150
8 | CC(C)C[C@@H]1NC(=O)[C@@H](N(C)C(=O)[C@@H](NC(=O)[C@@H]2C[C@@H](F)CN2C(=O)C2(C(F)(F)F)CC(F)(F)C2)C2CC2)CCCCCCCN(C)C(=O)[C@H](Cc2cc(Cl)ccc2-c2ccc(OC3CCN(C)CC3)nc2)N(C)C1=O [Example 396] ({cBuCO(3,3-F2-1-CF3)}-[Pro(trans-4-F)][Gly(cPr)][NMehhhLys(Me)]L[X212]; lactam 3-C) | 20 | 2530 |  | 20 | 10 | 30
9 | CC(C)C[C@@H]1NC(=O)[C@@H](N(C)C(=O)[C@@H](NC(=O)[C@@H]2C[C@@H](F)CN2C(=O)C2(C(F)(F)F)CC(F)(F)C2)C2CC2)CCCCCCCN(C)C(=O)[C@H](Cc2cc(F)ccc2-c2ccc(N3CCN(C)CC3)c(F)c2)N(C)C1=O [Example 401] ({cBuCO(3,3-F2-1-CF3)}-[Pro(trans-4-F)][Gly(cPr)][NMehhhLys(Me)]L[X145]; lactam 3-C) | 20 | 380 |  | 10 | 10 | 20
10 | CC(C)C[C@@H]1NC(=O)[C@@H](N(C)C(=O)[C@@H](NC(=O)[C@@H]2C[C@@H](F)CN2C(=O)C2(C(F)(F)F)CC(F)(F)C2)C2CC2)CCCCCCCN(C)C(=O)[C@H](Cc2cc(Cl)ccc2-c2ccc(N3CC(C)(F)C3)nc2)N(C)C1=O [Example 402] ({cBuCO(3,3-F2-1-CF3)}-[Pro(trans-4-F)][Gly(cPr)][NMehhhLys(Me)]L[X144]; lactam 3-C) | 20 | 960 |  | 40 | 10 | 20
11 | CCN1CCCCCCC[C@H](N(C)C(=O)[C@@H](NC(=O)[C@@H]2C[C@@H](F)CN2C(=O)C2(C(F)(F)F)CC(F)(F)C2)C2CC2)C(=O)N[C@@H](CC(C)C)C(=O)N(C)[C@@H](Cc2cc(Cl)ccc2-c2ccc(N3CCOCC3)cc2)C1=O [Example 404] | 20 | 1530 |  | 20 | 30 | 20
12 | CC(C)C[C@@H]1NC(=O)[C@@H](N(C)C(=O)[C@@H](NC(=O)[C@@H]2C[C@@H](F)CN2C(=O)C2(C(F)(F)F)CC(F)(F)C2)C2CC2)CCCCCCCN(C)C(=O)[C@H](Cc2cc(Cl)ccc2-c2ccc(N3CCO[C@H](C)C3)cc2)N(C)C1=O [Example 414] ({cBuCO(3,3-F2-1-CF3)}-[Pro(trans-4-F)][Gly(cPr)][NMehhhLys(Me)]L[X121]; lactam 3-C) | 20 | 940 |  | 10 | 10 | 30
13 | CC(C)C[C@@H]1NC(=O)[C@@H](N(C)C(=O)[C@H](CCc2ccc(C#N)nc2)NC(=O)[C@@H]2C[C@@H](F)CN2C(=O)C2(C(F)(F)F)CC(F)(F)C2)CCCCCCCN(C)C(=O)[C@H](Cc2cc(Cl)ccc2-c2ccc(N3CCOCC3)cc2)N(C)C1=O [Example 416] ({cBuCO(3,3-F2-1-CF3)}-[Pro(trans-4-F)][X182][NMehhhLys(Me)]L[NMePhe(2-(4-MorPh),5-Cl)]; lactam 3-C) | 20 | 3980 |  | 30 | 40 | 40
14 | CC(C)C[C@@H]1NC(=O)[C@@H](N(C)C(=O)[C@H](CCC(=O)O)NC(=O)[C@@H]2C[C@@H](F)CN2C(=O)C2(C(F)(F)F)CC(F)(F)C2)CCCCCCCN(C)C(=O)[C@H](Cc2cc(Cl)ccc2-c2ccc(N3CCOCC3)cc2)N(C)C1=O [Example 418] ({cBuCO(3,3-F2-1-CF3)}-[Pro(trans-4-F)]E[NMehhhLys(Me)]L[NMePhe(2-(4-MorPh),5-Cl)]; lactam 3-C) | 20 | 5260 |  | 1420 | 1150 | 120
15 | CC(C)C[C@@H]1NC(=O)[C@@H](N(C)C(=O)[C@@H](NC(=O)[C@@H]2C[C@@H](F)CN2C(=O)C2(C(F)(F)F)CC(F)(F)C2)C2CC2)CCCCCCCN(C)C(=O)[C@H](Cc2cc(F)cc3cccnc23)N(C)C1=O [Example 423] ({cBuCO(3,3-F2-1-CF3)}-[Pro(trans-4-F)][Gly(cPr)][NMehhhLys(Me)]L[X143]; lactam 3-C) | 20 | 710 |  | 200 | 70 | 720
16 | CC(C)C[C@@H]1NC(=O)[C@@H](N(C)C(=O)[C@@H](NC(=O)[C@@H]2C[C@@H](F)CN2C(=O)C2(C(F)(F)F)CC(F)(F)C2)C2CC2)CCCCCCCN(C)C(=O)[C@H](Cc2cc(Cl)cc3ccccc23)N(C)C1=O [Example 425] ({cBuCO(3,3-F2-1-CF3)}-[Pro(trans-4-F)][Gly(cPr)][NMehhhLys(Me)]L[X156]; lactam 3-C) | 20 | 210 |  | 160 | 240 | 150
17 | CC(C)C[C@@H]1NC(=O)[C@@H](N(C)C(=O)[C@@H](NC(=O)[C@@H]2C[C@@H](F)CN2C(=O)C2(C(F)(F)F)CC(F)(F)C2)C2CC2)CCCCCCCN(C)C(=O)[C@H](Cc2cc(Cl)cs2)N(C)C1=O [Example 426] ({cBuCO(3,3-F2-1-CF3)}-[Pro(trans-4-F)][Gly(cPr)][NMehhhLys(Me)]L[X173]; lactam 3-C) | 20 | 2060 |  | 90 | 150 | 110
